Reference: BindingDB's records for doi:10.3109/14756366.2011.651463 (Medical University of Bialystok, 2013)

Assays:
Plasminogen = Plasminogen (Homo sapiens, UniProt P00747); test: Plasmin Amidolytic Assay; conditions: pH 7.4
Method: (§1) Buffer and 0.1 mL of enzyme solution was added to 0.2 mL of examined compounddissolved in 0.15 M NaCl (as control 0.15 M NaCl). The buffer and the enzyme solution included: Tris buffer − 0.5 mL (pH 7.4), enzyme: plasmin (0.4 units/mL), synthetic substrate: S-2251 (0.2 mL, 3 mM). The mixture was incubated for 3 min at 37°C. After 20 min of incubation, the reaction was stopped by adding 0.1 ml of 50% acetic acid, and the absorbance of the released p-nitroaniline was measured at 405 nm (Spekol 1300, AnalyticJena).

Serine protease 1 = Serine protease 1 (Homo sapiens, UniProt P07477); test: Tyrpsin Amidolytic Assay; conditions: pH 7.5
Chain of Serine protease 1 (P07477 whole entry): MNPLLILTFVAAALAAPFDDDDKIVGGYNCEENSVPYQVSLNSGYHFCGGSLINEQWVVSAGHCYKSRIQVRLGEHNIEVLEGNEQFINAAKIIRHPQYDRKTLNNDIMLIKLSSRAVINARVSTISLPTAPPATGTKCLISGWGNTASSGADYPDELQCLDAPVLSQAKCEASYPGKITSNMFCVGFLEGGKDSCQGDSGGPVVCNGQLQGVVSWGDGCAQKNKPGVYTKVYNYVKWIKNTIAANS
Method: as §1, with “included: […]” for “included: Tris”, “(pH 7.5),” for “(pH 7.4),”, “enzyme: trypsin (0.4units/mL),” for “enzyme: plasmin (0.4 units/mL),”, “substrate: Bzl-L-Arg-pNA HCl” for “substrate: S-2251”, “mL, 8” for “mL, 3”

[1] = target: Urokinase-type plasminogen activator (Homo sapiens, UniProt P00749); test: Urokinase Amidolytic Assay; conditions: pH 8.8
Method: as §1, with “0.6” for “0.5”, “8.8),” for “7.4),”, “urokinase (50” for “plasmin (0.4”, “S-2444 (0.1” for “S-2251 (0.2”

Prothrombin = Prothrombin (Homo sapiens, UniProt P00734); test: Thrombin Amidolytic Assay; conditions: pH 8.4
Method: as §1, with “(pH 8.4),” for “(pH 7.4),”, “enzyme: thrombin (1” for “enzyme: plasmin (0.4”, “substrate: S-2238” for “substrate: S-2251”, “mL, 0.75” for “mL, 3”

Chain of Plasminogen (P00747 97-580 limits assumed): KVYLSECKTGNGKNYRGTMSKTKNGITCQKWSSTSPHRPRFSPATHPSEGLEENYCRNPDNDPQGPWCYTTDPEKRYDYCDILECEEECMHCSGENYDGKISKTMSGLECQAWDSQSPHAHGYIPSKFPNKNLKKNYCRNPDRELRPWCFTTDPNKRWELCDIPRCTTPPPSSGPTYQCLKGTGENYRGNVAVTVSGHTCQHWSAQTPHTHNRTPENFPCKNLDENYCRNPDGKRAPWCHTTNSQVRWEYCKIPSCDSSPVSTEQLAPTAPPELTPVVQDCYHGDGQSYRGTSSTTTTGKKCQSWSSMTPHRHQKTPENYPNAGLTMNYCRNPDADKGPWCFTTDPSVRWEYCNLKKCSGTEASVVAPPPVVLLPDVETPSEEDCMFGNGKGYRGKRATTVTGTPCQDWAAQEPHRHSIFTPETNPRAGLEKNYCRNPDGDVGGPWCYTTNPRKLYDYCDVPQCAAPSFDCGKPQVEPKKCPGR
Chain of Plasminogen (P00747 581-810 limits assumed): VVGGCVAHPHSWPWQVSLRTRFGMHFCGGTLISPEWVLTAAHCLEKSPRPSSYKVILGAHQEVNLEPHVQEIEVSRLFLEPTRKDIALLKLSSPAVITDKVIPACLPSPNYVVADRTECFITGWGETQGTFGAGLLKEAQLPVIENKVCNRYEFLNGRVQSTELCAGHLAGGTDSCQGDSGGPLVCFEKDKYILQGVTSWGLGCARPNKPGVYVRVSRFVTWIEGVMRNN

| Structure (SMILES) | Ki (Plasminogen) [µM] | Ki (Serine protease 1) [µM] | Ki [1] [µM] | Ki (Prothrombin) [µM] |
| --- | --- | --- | --- | --- |
| N=C(N)NCCC[C@H](NC(=O)[C@H](CCc1ccccc1)NC(=O)[C@H](N)CO)C(=O)O [H-D-Ser-homoPhe-Arg-OH (3)] | 5.9 | 23.9 | – | – |
| N=C(N)NCCC[C@@H](NC(=O)C1(NC(=O)[C@H](N)CO)CCCCC1)C(=O)O [H-D-Ser-1ACH-Arg-OH (8)] | – | – | 395 | 15 |
| N=C(N)NCCC[C@@H](NC(=O)[C@@H](CC1CCCCC1)NC(=O)[C@H](N)CO)C(=O)O [H-D-Ser-Cha-Arg-OH (5)] | – | – | 247 | 19.8 |
| C[C@@](Cc1ccccc1)(NC(=O)[C@H](N)CO)C(=O)N[C@@H](CCCNC(=N)N)C(=O)O [H-D-Ser-αMePhe-Arg-OH (7)] | 7.9 | 28.2 | – | – |
| N=C(N)NCCC[C@H](NC(=O)C1(NC(=O)[C@H](N)CO)CCCCC1)C(=O)O [H-D-Ser-1ACH-Arg-OH (8)] | 7.7 | 26.2 | – | – |
| N=C(N)NCCC[C@H](NC(=O)[C@H](Cc1ccccc1)NC(=O)[C@H](N)CO)C(=O)O [H-D-Ser-Phe-Arg-OH (2)] | 8.7 | 22.9 | – | – |
| N=C(N)NCCC[C@H](NC(=O)[C@H](CC1CCCCC1)NC(=O)[C@H](N)CO)C(=O)O [H-D-Ser-Cha-Arg-OH (5)] | 8.9 | 30.9 | – | – |
| N=C(N)NCCC[C@@H](NC(=O)[C@@H](CCC1CCCCC1)NC(=O)[C@H](N)CO)C(=O)O [H-D-Ser-homoCha-Arg-OH (6)] | – | – | 451 | 18.1 |
| N=C(N)NCCC[C@@H](NC(=O)[C@@H](Cc1ccccc1)NC(=O)[C@H](N)CO)C(=O)O [H-D-Ser-Phe-Arg-OH (2)] | – | – | 544 | 12.1 |
| N=C(N)NCCC[C@@H](NC(=O)[C@@H](CCc1ccccc1)NC(=O)[C@H](N)CO)C(=O)O [H-D-Ser-homoPhe-Arg-OH (3)] | – | – | 566 | 16.1 |
| N=C(N)NCCC[C@H](NC(=O)[C@H](CCC1CCCCC1)NC(=O)[C@H](N)CO)C(=O)O [H-D-Ser-homoCha-Arg-OH (6)] | 11.2 | 27.2 | – | – |
